2 compounds from ChEMBL document CHEMBL3351663, “Discovery of acylurea isosteres of 2-acylaminothiadiazole in the azaxanthene series of glucocorticoid receptor agonists” (Bioorg Med Chem Lett, 2014) can be followed below.

Data set [1] has as its target T1, Glucocorticoid receptor (Homo sapiens, UniProt P04150).
T1 sequence (P04150 whole entry): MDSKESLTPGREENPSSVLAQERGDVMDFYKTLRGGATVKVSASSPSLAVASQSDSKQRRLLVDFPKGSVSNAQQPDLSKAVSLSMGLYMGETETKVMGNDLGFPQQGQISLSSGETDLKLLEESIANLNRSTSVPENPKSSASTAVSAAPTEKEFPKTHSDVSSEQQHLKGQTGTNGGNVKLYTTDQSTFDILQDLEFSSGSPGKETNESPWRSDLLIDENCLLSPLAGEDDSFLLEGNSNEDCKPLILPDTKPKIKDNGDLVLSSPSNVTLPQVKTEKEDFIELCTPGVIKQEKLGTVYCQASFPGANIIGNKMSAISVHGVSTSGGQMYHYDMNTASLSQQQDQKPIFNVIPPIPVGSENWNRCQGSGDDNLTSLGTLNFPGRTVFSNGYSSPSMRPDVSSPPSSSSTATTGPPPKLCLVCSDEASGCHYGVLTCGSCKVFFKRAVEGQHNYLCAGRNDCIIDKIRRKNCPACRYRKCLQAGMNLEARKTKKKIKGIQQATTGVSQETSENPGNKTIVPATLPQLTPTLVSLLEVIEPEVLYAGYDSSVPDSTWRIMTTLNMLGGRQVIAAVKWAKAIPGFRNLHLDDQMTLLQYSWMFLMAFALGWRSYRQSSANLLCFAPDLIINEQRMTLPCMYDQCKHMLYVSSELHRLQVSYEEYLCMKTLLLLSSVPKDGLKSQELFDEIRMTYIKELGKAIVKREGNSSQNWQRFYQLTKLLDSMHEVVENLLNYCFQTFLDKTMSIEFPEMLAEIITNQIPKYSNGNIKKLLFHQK
As to the kind of experiment: Binding affinity to glucocorticoid receptor (unknown origin) by fluorescence polarization assay.

The target in a further data set is T2, Progesterone receptor (Homo sapiens, UniProt P06401).
T2 sequence (P06401 whole entry): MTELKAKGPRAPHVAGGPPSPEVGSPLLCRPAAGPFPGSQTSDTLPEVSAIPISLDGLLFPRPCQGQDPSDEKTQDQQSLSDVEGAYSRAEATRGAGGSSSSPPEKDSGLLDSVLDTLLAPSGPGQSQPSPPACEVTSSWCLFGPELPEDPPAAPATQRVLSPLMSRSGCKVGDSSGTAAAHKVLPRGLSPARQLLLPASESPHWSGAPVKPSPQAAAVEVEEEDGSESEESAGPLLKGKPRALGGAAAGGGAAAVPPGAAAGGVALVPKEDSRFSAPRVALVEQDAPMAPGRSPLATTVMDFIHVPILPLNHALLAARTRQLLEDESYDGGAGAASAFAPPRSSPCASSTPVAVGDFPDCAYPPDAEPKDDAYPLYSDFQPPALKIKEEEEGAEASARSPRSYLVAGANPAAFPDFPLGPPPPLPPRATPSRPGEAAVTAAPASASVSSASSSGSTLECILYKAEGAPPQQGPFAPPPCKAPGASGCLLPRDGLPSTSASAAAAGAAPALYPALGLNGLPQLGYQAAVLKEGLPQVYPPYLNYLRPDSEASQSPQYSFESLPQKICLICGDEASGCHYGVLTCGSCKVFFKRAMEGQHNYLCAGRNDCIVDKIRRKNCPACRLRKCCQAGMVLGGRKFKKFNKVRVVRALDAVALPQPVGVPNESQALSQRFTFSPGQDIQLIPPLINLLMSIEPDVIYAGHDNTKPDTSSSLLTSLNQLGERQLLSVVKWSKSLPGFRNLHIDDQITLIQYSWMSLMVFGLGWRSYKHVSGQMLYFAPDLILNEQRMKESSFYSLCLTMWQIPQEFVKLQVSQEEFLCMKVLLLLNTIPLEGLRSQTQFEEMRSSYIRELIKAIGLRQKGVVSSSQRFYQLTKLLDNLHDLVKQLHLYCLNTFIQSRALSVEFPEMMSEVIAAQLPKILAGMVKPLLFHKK
As to the kind of experiment: Binding affinity to progesterone receptor (unknown origin) by fluorescence polarization assay.

Data set [2] deals with T1, Glucocorticoid receptor. As to the kind of experiment: Agonist activity at glucocorticoid receptor in human A549 cells assessed as AP-1 transrepression by luciferase reporter gene assay. The class given is cell-based. Background: Reporter assays use an easily measured gene product as a stand-in for the process of interest.
The target of data set [3] is T1, Glucocorticoid receptor. As to the kind of experiment: Agonist activity at glucocorticoid receptor in human A549 cells assessed as E-selectin transrepression by luciferase reporter gene assay. Type of data set: cell-based.
For data set [4], the target named is T1, Glucocorticoid receptor. As to the kind of experiment: Agonist activity at glucocorticoid receptor in human HeLa cells assessed as NP-1 transactivation by luciferase reporter gene assay. The class given is cell-based.
The target in data set [5] is T1, Glucocorticoid receptor. Also on record: species or system Blood.
Data set [6] can be described thus: Half life in human liver microsomes. As to conditions: liver microsomes.
Data set [7] is described as follows: Half life in rat liver microsomes. Type of data set: ADME. Background: Liver microsomes are vesicles of endoplasmic reticulum, rich in cytochrome P450 enzymes.
Data set [8] is described as follows: Half life in dog liver microsomes. The class given is ADME, Canis lupus familiaris.
Data set [9] in a line: Clearance in rat at 1 mg/kg, iv. Also on record: dose 1 mg/kg, route intravenous. As to conditions: in vivo. The class given is ADME, organism-based.
The nature of data set [10]: Oral bioavailability in rat at 10 mg/kg. The class given is ADME, organism-based. As to conditions: in vivo.
The nature of data set [11]: Clearance in iv dosed dog. Type of data set: ADME, organism-based, Canis lupus familiaris. As to conditions: in vivo.
A short description of data set [12]: Oral bioavailability in dog at 5 mg/kg. Type of data set: ADME, organism-based, Canis lupus familiaris. As to conditions: in vivo.
Data set [13] is filed under the species Rattus norvegicus. As to the kind of experiment: animal or person. The class given is functional. As to conditions: Lewis, route oral.
A short description of data set [14]: Drug uptake in Lewis rat serum at 10 mg/kg, po after 3 hrs. As to conditions: read-out: Drug uptake. Set-up: dose 10 mg/kg, route oral. Type of data set: ADME, organism-based.
Data set [15] deals with Liver microsome. As to the kind of experiment: Metabolic stability in human liver microsomes assessed as compound remaining.
Data set [16] relates to Liver microsome. The experiment in a line: Metabolic stability in rat liver microsomes assessed as compound remaining.
A further data set relates to Liver. As to the kind of experiment: Metabolic stability in mouse liver microsomes assessed as compound remaining.
In data set [17] the test system is Rattus norvegicus. As to the kind of experiment: Antiinflammatory activity in Lewis rat assessed as inhibition of LPS-induced TNF-alpha production at 30 mg/kg, po administered 90 mins prior to LPS challenge measured after 90 mins relative to vehicle-treated control. Type of data set: functional.

Usually Ki stands for the dissociation constant of the complex between target and ligand, obtained from inhibition or displacement. High values mean weaker binding, low ones tighter binding. The term EC50 denotes the concentration needed to bring the measured effect to its halfway point. The half-life is how long it takes for the measured level to halve. A lower half-life goes with rapid decline. As a reminder, the clearance is a measure of how efficiently the substance is removed, as volume per time. High values mean efficient removal, low ones inefficient removal. For orientation: bioavailability means the share of a dose that reaches the circulation, judged against a reference dose that is usually intravenous. High values mean much systemic uptake, low ones little systemic uptake. The term inhibition in vivo denotes the drop in the measured response relative to a control, in per cent. As for `CC(C)Oc1ccc(-c2ccc3c(n2)Oc2c(F)cccc2[C@@H]3C(C)(C)C(=O)NC(N)=O)cn1`, the figures for the Ki at Glucocorticoid receptor [1] and at Progesterone receptor were 0.7 nM and 313 nM, respectively. Further, the EC50 at Glucocorticoid receptor [2] turned out to be 6.7 nM; at Glucocorticoid receptor [3], 3.8 nM; on Glucocorticoid receptor [4], 59.2 nM; at Glucocorticoid receptor [5] it was 355 nM. The half-life stood at 191 min in data set [6], 14 min in [7] and 98 min in data set [8]. Moreover, the clearance was 20.8 mL/min/kg in [9] and 9 mL/min/kg in data set [11]. Also, the bioavailability in [10] is 25.7%; in [12], 82%. The compound also gave an inhibition in vivo at 10 mg/kg in the data set listed under Rattus norvegicus [13] of 69%. Further, the concentration at 3 h in [14] came out at 500 nM. Besides, the Stability in the data set with Liver microsome [15] came to 97%; with Liver microsome [16] it was 58%; with Liver it was 86%.

As to `C[C@]12C=CC(=O)C=C1CC[C@@H]1[C@@H]2[C@@H](O)C[C@@]2(C)[C@H]1CC[C@]2(O)C(=O)CO` [PREDNISOLONE], the inhibition in vivo at 30 mg/kg with Rattus norvegicus [17] worked out at 75%.
